Assays:
Assay in all cases: relative viability (nuclei count vs DMSO), 5 days (fraction); higher = more cells survive
NCI-H1975 = tested on: NCI-H1975
Summary of the method: (§1)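 Relative viability is defined as nuclei in treated wells over nuclei in vehicle wells. Duplicate plates were run and medians reported. Lung cancer cell lines in 1536-well plates were dosed by pin tool one day after seeding, with one drug or with a fixed anchor-drug dose plus five library-drug doses (not always all listed) in √10 steps, and nuclei were counted after 5 days.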

NCI-H1734 = tested on: NCI-H1734
Summary of the method: as §1

NCI-H1299 = tested on: NCI-H1299
Summary of the method: as §1

IA-LM = tested on: IA-LM
Summary of the method: as §1

LXF-289 = tested on: LXF-289
Summary of the method: as §1

Calu-6 = tested on: Calu-6
Summary of the method: as §1

A549 = tested on: A549
Summary of the method: as §1

NCI-H1650 = tested on: NCI-H1650
Summary of the method: as §1

NCI-H1648 = tested on: NCI-H1648
Summary of the method: as §1

EBC-1 = tested on: EBC-1
Summary of the method: as §1

HARA = tested on: HARA
Summary of the method: as §1

201T = tested on: 201T
Summary of the method: as §1

NCI-H1703 = tested on: NCI-H1703
Summary of the method: as §1

HCC-78 = tested on: HCC-78
Summary of the method: as §1

With `COCC1(CO)C(=O)C2CCN1CC2` (stereo not drawn) [PRIMA-1MET] + O=C(c1cc(Cc2n[nH]c(=O)c3ccccc23)ccc1F)N1CCN(C(=O)C2CC2)CC1 [Olaparib] (partner 8 µM) the relative viability (NCI-H1975; first compound 0.2 µM) was 1.01, the relative viability (NCI-H1975; first compound 0.6325 µM) was 0.699 and the relative viability (NCI-H1975; first compound 2 µM) was 0.775. For the same compound, the relative viability (NCI-H1975; first compound 6.325 µM) was 0.847, the relative viability (NCI-H1975; first compound 20 µM) was 0.616 and the relative viability (NCI-H1734; first compound 0.2 µM) was 0.711. It also gave a relative viability (NCI-H1734; first compound 0.6325 µM) of 0.627, a relative viability (NCI-H1734; first compound 2 µM) of 0.581 and a relative viability (NCI-H1734; first compound 6.325 µM) of 0.631. It also gave a relative viability (NCI-H1734; first compound 20 µM) of 0.0357, a relative viability (NCI-H1299; first compound 0.2 µM) of 0.984 and a relative viability (NCI-H1299; first compound 0.6325 µM) of 0.921. For the same compound, the relative viability (NCI-H1299; first compound 2 µM) was 0.99, the relative viability (NCI-H1299; first compound 6.325 µM) was 0.959 and the relative viability (NCI-H1299; first compound 20 µM) was 0.984. The relative viability (IA-LM; first compound 0.2 µM) was 0.867, the relative viability (IA-LM; first compound 0.6325 µM) was 0.676 and the relative viability (IA-LM; first compound 2 µM) was 0.905. For the same compound, the relative viability (IA-LM; first compound 6.325 µM) was 0.819, the relative viability (IA-LM; first compound 20 µM) was 0.788 and the relative viability (LXF-289; first compound 0.2 µM) was 1.14. It also gave a relative viability (LXF-289; first compound 0.6325 µM) of 1.03, a relative viability (LXF-289; first compound 2 µM) of 1.06 and a relative viability (LXF-289; first compound 6.325 µM) of 1.06. The relative viability (LXF-289; first compound 20 µM) was 0.999, the relative viability (Calu-6; first compound 0.2 µM) was 0.547 and the relative viability (Calu-6; first compound 0.6325 µM) was 0.588. For the same compound, the relative viability (Calu-6; first compound 2 µM) was 0.594, the relative viability (Calu-6; first compound 6.325 µM) was 0.516 and the relative viability (Calu-6; first compound 20 µM) was 0.443. The relative viability (A549; first compound 0.2 µM) was 0.528, the relative viability (A549; first compound 0.6325 µM) was 0.365 and the relative viability (A549; first compound 2 µM) was 0.379. The relative viability (A549; first compound 6.325 µM) was 0.371, the relative viability (A549; first compound 20 µM) was 0.266 and the relative viability (NCI-H1650; first compound 0.2 µM) was 0.75. It also gave a relative viability (NCI-H1650; first compound 0.6325 µM) of 0.744, a relative viability (NCI-H1650; first compound 2 µM) of 0.75 and a relative viability (NCI-H1650; first compound 6.325 µM) of 0.709. The relative viability (NCI-H1650; first compound 20 µM) was 0.585, the relative viability (NCI-H1648; first compound 0.2 µM) was 0.747 and the relative viability (NCI-H1648; first compound 2 µM) was 1.43. For the same compound, the relative viability (NCI-H1648; first compound 20 µM) was 0.912, the relative viability (EBC-1; first compound 0.2 µM) was 0.692 and the relative viability (EBC-1; first compound 0.6325 µM) was 0.712. It also gave a relative viability (EBC-1; first compound 2 µM) of 0.701, a relative viability (EBC-1; first compound 6.325 µM) of 0.828 and a relative viability (EBC-1; first compound 20 µM) of 0.7. It also gave a relative viability (HARA; first compound 0.2 µM) of 0.69, a relative viability (HARA; first compound 0.6325 µM) of 0.832 and a relative viability (HARA; first compound 2 µM) of 0.7. For the same compound, the relative viability (HARA; first compound 6.325 µM) was 0.75, the relative viability (HARA; first compound 20 µM) was 0.741 and the relative viability (201T; first compound 0.2 µM) was 0.947. The relative viability (201T; first compound 0.6325 µM) was 0.829, the relative viability (201T; first compound 2 µM) was 0.808 and the relative viability (201T; first compound 6.325 µM) was 0.908. For the same compound, the relative viability (201T; first compound 20 µM) was 0.839, the relative viability (NCI-H1703; first compound 0.2 µM) was 0.422 and the relative viability (NCI-H1703; first compound 6.325 µM) was 0.769. The relative viability (NCI-H1703; first compound 20 µM) was 0.0733, the relative viability (HCC-78; first compound 0.2 µM) was 1 and the relative viability (HCC-78; first compound 0.6325 µM) was 1.06. It also gave a relative viability (HCC-78; first compound 2 µM) of 0.573, a relative viability (HCC-78; first compound 6.325 µM) of 0.881 and a relative viability (HCC-78; first compound 20 µM) of 0.338.
`COCC1(CO)C(=O)C2CCN1CC2` (stereo not drawn) [PRIMA-1MET] + O=C(CCCCCCC(=O)Nc1ccccc1)NO [Vorinostat] (partner 1 µM) gave a relative viability (NCI-H1975; first compound 0.2 µM) of 0.766, a relative viability (NCI-H1975; first compound 0.6325 µM) of 0.657 and a relative viability (NCI-H1975; first compound 2 µM) of 0.736. It also gave a relative viability (NCI-H1975; first compound 6.325 µM) of 0.725, a relative viability (NCI-H1975; first compound 20 µM) of 0.698 and a relative viability (NCI-H1734; first compound 0.2 µM) of 1.08. For the same compound, the relative viability (NCI-H1734; first compound 0.6325 µM) was 0.718, the relative viability (NCI-H1734; first compound 2 µM) was 0.777 and the relative viability (NCI-H1734; first compound 6.325 µM) was 0.536. It also gave a relative viability (NCI-H1734; first compound 20 µM) of 0.0676, a relative viability (IA-LM; first compound 0.2 µM) of 0.971 and a relative viability (IA-LM; first compound 0.6325 µM) of 0.74. It also gave a relative viability (IA-LM; first compound 2 µM) of 0.926, a relative viability (IA-LM; first compound 6.325 µM) of 1.06 and a relative viability (IA-LM; first compound 20 µM) of 1.05. For the same compound, the relative viability (LXF-289; first compound 0.2 µM) was 0.864, the relative viability (LXF-289; first compound 0.6325 µM) was 0.628 and the relative viability (LXF-289; first compound 2 µM) was 0.79. It also gave a relative viability (LXF-289; first compound 6.325 µM) of 0.796, a relative viability (LXF-289; first compound 20 µM) of 0.745 and a relative viability (NCI-H1650; first compound 0.2 µM) of 0.619. For the same compound, the relative viability (NCI-H1650; first compound 0.6325 µM) was 0.403, the relative viability (NCI-H1650; first compound 2 µM) was 0.55 and the relative viability (NCI-H1650; first compound 6.325 µM) was 0.703. The relative viability (NCI-H1650; first compound 20 µM) was 0.406, the relative viability (NCI-H1648; first compound 0.2 µM) was 0.668 and the relative viability (NCI-H1648; first compound 2 µM) was 0.445. It also gave a relative viability (NCI-H1648; first compound 20 µM) of 0.621, a relative viability (HARA; first compound 0.2 µM) of 0.544 and a relative viability (HARA; first compound 0.6325 µM) of 0.266. It also gave a relative viability (HARA; first compound 6.325 µM) of 0.587, a relative viability (HARA; first compound 20 µM) of 0.499 and a relative viability (201T; first compound 0.2 µM) of 1.15. The relative viability (201T; first compound 0.6325 µM) was 0.676, the relative viability (201T; first compound 2 µM) was 0.797 and the relative viability (201T; first compound 6.325 µM) was 0.991. The relative viability (201T; first compound 20 µM) was 0.98, the relative viability (HCC-78; first compound 0.2 µM) was 0.624 and the relative viability (HCC-78; first compound 0.6325 µM) was 0.407. It also gave a relative viability (HCC-78; first compound 2 µM) of 0.392, a relative viability (HCC-78; first compound 6.325 µM) of 0.403 and a relative viability (HCC-78; first compound 20 µM) of 0.102.

— the supplement of paper PMC10307832
